Legend:
Met = Met (Homo sapiens, UniProt P08581); assay: Met autophosphorylation ELISA in PC-3 cells; format: cell-based; design: endogenous in cells; host or cells: PC-3 prostate cancer cells (ATCC #CRL-1435); conditions: cellular activity, HGF-stimulated, phospho-Met ELISA, read-out: c-Met IC50
Summary of the method: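 PC-3 cells serum-starved 3 h, treated 1 h with 8-point compound series (0.3% DMSO), then stimulated with 100 ng/mL human HGF for 10 min. Lysate phospho-Met (panTyr) measured by sandwich ELISA; IC50 from 4-parameter logistic fit against DMSO and reference-inhibitor controls.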

Mer = biological target: T1, Mer (Homo sapiens, UniProt Q12866); assay: Mer autophosphorylation ELISA in transient transfected 293A cells; format: cell-based; conditions: cellular activity; MERTK-transfected 293A cells, phospho-Mer ELISA
T1 construct: host or cells: 293A cells (Thermo Fisher #R70507)
T1 sequence (Q12866 21-999): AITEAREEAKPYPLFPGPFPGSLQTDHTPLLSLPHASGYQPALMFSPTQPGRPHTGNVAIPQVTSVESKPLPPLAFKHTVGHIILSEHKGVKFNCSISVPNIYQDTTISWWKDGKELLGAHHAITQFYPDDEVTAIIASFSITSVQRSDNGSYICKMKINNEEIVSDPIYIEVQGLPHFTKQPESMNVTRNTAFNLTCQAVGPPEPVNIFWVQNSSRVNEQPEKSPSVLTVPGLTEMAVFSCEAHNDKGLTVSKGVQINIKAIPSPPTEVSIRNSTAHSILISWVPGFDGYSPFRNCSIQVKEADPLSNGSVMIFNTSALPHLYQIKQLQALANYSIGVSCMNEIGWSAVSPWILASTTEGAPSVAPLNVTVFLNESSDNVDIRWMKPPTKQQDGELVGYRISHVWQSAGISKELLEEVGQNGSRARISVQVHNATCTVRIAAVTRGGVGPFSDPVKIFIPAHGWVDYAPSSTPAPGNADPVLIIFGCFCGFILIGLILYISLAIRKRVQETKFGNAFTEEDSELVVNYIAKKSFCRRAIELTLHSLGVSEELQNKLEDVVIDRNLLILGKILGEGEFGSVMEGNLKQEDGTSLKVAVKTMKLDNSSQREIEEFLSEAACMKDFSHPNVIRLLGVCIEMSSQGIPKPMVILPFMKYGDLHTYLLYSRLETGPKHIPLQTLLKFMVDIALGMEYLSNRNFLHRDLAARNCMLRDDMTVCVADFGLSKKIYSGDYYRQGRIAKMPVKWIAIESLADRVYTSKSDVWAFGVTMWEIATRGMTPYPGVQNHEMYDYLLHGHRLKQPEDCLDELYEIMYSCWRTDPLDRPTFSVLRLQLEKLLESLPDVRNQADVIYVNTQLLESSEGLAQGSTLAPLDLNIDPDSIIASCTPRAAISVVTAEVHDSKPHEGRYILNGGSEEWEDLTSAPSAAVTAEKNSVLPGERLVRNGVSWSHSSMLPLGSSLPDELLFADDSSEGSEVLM
Summary of the method: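 293A cells transiently transfected with human MERTK DNA, then treated 1 h with 8-point compound dilutions in serum-free medium (0.3% DMSO). Phospho-Mer in lysates quantified by sandwich ELISA against phospho-Mer standard; normalised to DMSO (100%) and reference inhibitor (0%), IC50 from 4-parameter logistic fit.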

Sequence of Met (P08581 25-1390): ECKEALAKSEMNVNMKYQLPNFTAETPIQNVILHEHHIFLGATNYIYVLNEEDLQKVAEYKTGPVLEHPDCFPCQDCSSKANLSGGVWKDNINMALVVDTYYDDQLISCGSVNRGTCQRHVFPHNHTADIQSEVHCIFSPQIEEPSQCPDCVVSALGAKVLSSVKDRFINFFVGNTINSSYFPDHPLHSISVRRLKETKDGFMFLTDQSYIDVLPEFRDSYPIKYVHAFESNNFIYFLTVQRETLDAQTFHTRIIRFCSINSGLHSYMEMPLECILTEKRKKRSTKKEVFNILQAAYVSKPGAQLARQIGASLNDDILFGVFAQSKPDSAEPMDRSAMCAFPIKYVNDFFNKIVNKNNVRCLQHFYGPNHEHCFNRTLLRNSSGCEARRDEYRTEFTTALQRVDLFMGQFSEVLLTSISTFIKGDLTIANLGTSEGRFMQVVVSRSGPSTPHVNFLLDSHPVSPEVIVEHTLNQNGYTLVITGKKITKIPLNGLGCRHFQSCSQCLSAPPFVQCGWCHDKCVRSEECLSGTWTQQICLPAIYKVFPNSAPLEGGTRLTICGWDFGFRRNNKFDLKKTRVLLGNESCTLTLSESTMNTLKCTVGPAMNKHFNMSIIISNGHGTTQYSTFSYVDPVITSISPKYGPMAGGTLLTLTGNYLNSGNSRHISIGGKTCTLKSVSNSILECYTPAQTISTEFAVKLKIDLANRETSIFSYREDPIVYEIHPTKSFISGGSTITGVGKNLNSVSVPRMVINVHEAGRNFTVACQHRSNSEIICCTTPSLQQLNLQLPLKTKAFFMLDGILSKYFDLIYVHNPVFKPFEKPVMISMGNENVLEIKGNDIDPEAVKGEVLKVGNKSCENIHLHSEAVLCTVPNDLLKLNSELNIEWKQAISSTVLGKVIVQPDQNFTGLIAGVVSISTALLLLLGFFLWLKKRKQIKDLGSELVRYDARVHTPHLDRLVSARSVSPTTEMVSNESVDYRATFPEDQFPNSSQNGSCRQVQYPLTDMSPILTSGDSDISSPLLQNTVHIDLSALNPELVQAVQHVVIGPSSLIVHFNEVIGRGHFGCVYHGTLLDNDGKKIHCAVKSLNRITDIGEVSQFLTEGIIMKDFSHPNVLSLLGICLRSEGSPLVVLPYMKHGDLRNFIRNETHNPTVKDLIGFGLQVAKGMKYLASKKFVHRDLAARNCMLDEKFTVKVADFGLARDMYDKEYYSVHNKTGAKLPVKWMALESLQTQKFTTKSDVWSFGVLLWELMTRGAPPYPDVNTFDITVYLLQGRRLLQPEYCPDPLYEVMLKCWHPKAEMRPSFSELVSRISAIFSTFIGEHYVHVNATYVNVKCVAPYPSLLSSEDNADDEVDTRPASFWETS

Cn1cnc(-c2ccc3c(Oc4ccc(NC(=O)C5(C(=O)Nc6ccc(F)cc6)CC5)cc4)ccnc3c2)c1 [Compound 69, 1-N′-(4-Fluorophenyl)-1-N-[4-[7-(1-methylimidazol-4-yl)quinolin-4-yl]oxyphenyl]cyclopropane-1,1-dicarboxamide]
IC50 (Met): ≤ 10 nM
IC50 (Mer): 10 to 100 nM

CCn1cc(-c2ccc3c(Oc4ccc(NC(=O)C5(C(=O)Nc6ccc(F)cc6)CC5)cc4)ccnc3c2)cn1 [Compound 20, 1-N-[4-[7-(1-Ethylpyrazol-4-yl)quinolin-4-yl]oxyphenyl]-1-N′-(4-fluorophenyl)cyclopropane-1,1-dicarboxamide]
IC50 (Met): 10 to 100 nM
IC50 (Mer): ≤ 10 nM

O=C(Nc1ccc(F)cc1)C1(C(=O)Nc2ccc(Oc3ccnc4cc(-c5cnn(C6COC6)c5)ccc34)cc2)CC1 [Compound 24, 1-N′-(4-Fluorophenyl)-1-N-[4-[7-[1-(oxetan-3-yl)pyrazol-4-yl]quinolin-4-yl]oxyphenyl]cyclopropane-1,1-dicarboxamide]
IC50 (Met): ≤ 10 nM
IC50 (Mer): ≤ 10 nM

Cn1cc(-c2ccc3c(Oc4ccc(NC(=O)C5(C(=O)Nc6ccc(F)cc6)CC5)cc4)ccnc3c2)ccc1=O [Compound 119, 1-N′-(4-Fluorophenyl)-1-N-[4-[7-(1-methyl-6-oxopyridin-3-yl)quinolin-4-yl]oxyphenyl]cyclopropane-1,1-dicarboxamide]
IC50 (Met): 10 to 100 nM
IC50 (Mer): 10 to 100 nM

O=C(Nc1ccc(F)cc1)C1(C(=O)Nc2ccc(Oc3ccnc4cc(-c5cnc[nH]5)ccc34)cc2)CC1 [Compound 72, 1-N′-(4-Fluorophenyl)-1-N-[4-[7-(1H-imidazol-5-yl)quinolin-4-yl]oxyphenyl]cyclopropane-1,1-dicarboxamide]
IC50 (Met): ≤ 10 nM
IC50 (Mer): ≤ 10 nM

O=C(Nc1ccc(F)cc1)C1(C(=O)Nc2ccc(Oc3ccnc4cc(-c5cccnc5O)ccc34)cc2)CC1 [Compound 52, 1-N′-(4-Fluorophenyl)-1-N-[4-[7-(2-hydroxypyridin-3-yl)quinolin-4-yl]oxyphenyl]cyclopropane-1,1-dicarboxamide]
IC50 (Met): 10 to 100 nM
IC50 (Mer): 100 to 300 nM

Cn1ccc(-c2ccc3c(Oc4ccc(NC(=O)C5(C(=O)Nc6ccc(F)cc6)CC5)cc4)ccnc3c2)cc1=O [Compound 117, 1-N′-(4-Fluorophenyl)-1-N-[4-[7-(1-methyl-2-oxopyridin-4-yl)quinolin-4-yl]oxyphenyl]cyclopropane-1,1-dicarboxamide]
IC50 (Met): 10 to 100 nM
IC50 (Mer): 10 to 100 nM

O=C(Nc1ccc(F)cc1)C1(C(=O)Nc2ccc(Oc3ccnc4cc(-c5cnn(C6CC6)c5)ccc34)cc2)CC1 [Compound 22, 1-N-[4-[7-(1-Cyclopropylpyrazol-4-yl)quinolin-4-yl]oxyphenyl]-1-N′-(4-fluorophenyl)cyclopropane-1,1-dicarboxamide]
IC50 (Met): 10 to 100 nM
IC50 (Mer): ≤ 10 nM

O=C(Nc1ccc(F)cc1)C1(C(=O)Nc2ccc(Oc3ccnc4cc(-c5cnn(CCN6CCOCC6)c5)ccc34)cc2)CC1 [Compound 19, 1-N′-(4-Fluorophenyl)-1-N-[4-[7-[1-(2-morpholin-4-ylethyl)pyrazol-4-yl]quinolin-4-yl]oxyphenyl]cyclopropane-1,1-dicarboxamide]
IC50 (Met): 10 to 100 nM
IC50 (Mer): ≤ 10 nM

Cn1cc(-c2ccc3c(Oc4ccc(NC(=O)C5(C(=O)Nc6ccc(F)cc6)CC5)cc4)ccnc3c2)cn1 [Compound 11, 1-N′-(4-Fluorophenyl)-1-N-[4-[7-(1-methylpyrazol-4-yl)quinolin-4-yl]oxyphenyl]cyclopropane-1,1-dicarboxamide]
IC50 (Met): ≤ 10 nM
IC50 (Mer): ≤ 10 nM

O=C(Nc1ccc(F)cc1)C1(C(=O)Nc2ccc(Oc3ccnc4cc(-c5cnn6c5CCC6)ccc34)cc2)CC1 [Compound 29, 1-N-[4-[7-(5,6-Dihydro-4H-pyrrolo[1,2-b]pyrazol-3-yl)quinolin-4-yl]oxyphenyl]-1-N′-(4-fluorophenyl)cyclopropane-1,1-dicarboxamide]
IC50 (Met): 10 to 100 nM
IC50 (Mer): 10 to 100 nM

O=C(Nc1ccc(F)cc1)C1(C(=O)Nc2cc(F)c(Oc3ccnc4cc(-c5cnn(C(F)F)c5)ccc34)cc2F)CC1 [Compound 118, 1-N′-[4-[7-[1-(Difluoromethyl)pyrazol-4-yl]quinolin-4-yl]oxy-2,5-difluorophenyl]-1-N-(4-fluorophenyl)cyclopropane-1,1-dicarboxamide]
IC50 (Met): 10 to 100 nM
IC50 (Mer): 10 to 100 nM

CN1CCC(n2cc(-c3ccc4c(Oc5ccc(NC(=O)C6(C(=O)Nc7ccc(F)cc7)CC6)cc5)ccnc4c3)cn2)CC1 [Compound 61, 1-N′-(4-Fluorophenyl)-1-N-[4-[7-[1-(1-methylpiperidin-4-yl)pyrazol-4-yl]quinolin-4-yl]oxyphenyl]cyclopropane-1,1-dicarboxamide]
IC50 (Met): 10 to 100 nM
IC50 (Mer): ≤ 10 nM

CS(=O)(=O)n1cc(-c2ccc3c(Oc4ccc(NC(=O)C5(C(=O)Nc6ccc(F)cc6)CC5)cc4)ccnc3c2)cn1 [Compound 79, 1-N′-(4-Fluorophenyl)-1-N-[4-[7-(1-methylsulfonylpyrazol-4-yl)quinolin-4-yl]oxyphenyl]cyclopropane-1,1-dicarboxamide]
IC50 (Met): 10 to 100 nM
IC50 (Mer): 10 to 100 nM

O=C(Nc1ccc(F)cc1)C1(C(=O)Nc2ccc(Oc3ccnc4cc(-c5ccc(F)nc5)ccc34)cc2)CC1 [Compound 41, 1-N′-(4-Fluorophenyl)-1-N-[4-[7-(6-fluoropyridin-3-yl)quinolin-4-yl]oxyphenyl]cyclopropane-1,1-dicarboxamide]
IC50 (Met): 10 to 100 nM
IC50 (Mer): 10 to 100 nM

O=C(Nc1ccc(F)cc1)C1(C(=O)Nc2ccc(Oc3ccnc4cc(-c5ccc[n+]([O-])c5)ccc34)cc2)CC1 [Compound 109, 1-N′-(4-Fluorophenyl)-1-N-[4-[7-(1-oxidopyridin-1-ium-3-yl)quinolin-4-yl]oxyphenyl]cyclopropane-1,1-dicarboxamide]
IC50 (Met): 10 to 100 nM
IC50 (Mer): 10 to 100 nM

CC(C)(C)n1cc(-c2ccc3c(Oc4ccc(NC(=O)C5(C(=O)Nc6ccc(F)cc6)CC5)cc4)ccnc3c2)cn1 [Compound 23, 1-N-[4-[7-(1-tert-Butylpyrazol-4-yl)quinolin-4-yl]oxyphenyl]-1-N′-(4-fluorophenyl)cyclopropane-1,1-dicarboxamide]
IC50 (Met): 10 to 100 nM
IC50 (Mer): 10 to 100 nM

O=C(Nc1ccc(F)cc1)C1(C(=O)Nc2ccc(Oc3ccnc4cc(-c5cnn(CCF)c5)ccc34)cc2)CC1 [Compound 14, 1-N-[4-[7-[1-(2-Fluoroethyl)pyrazol-4-yl]quinolin-4-yl]oxyphenyl]-1-N′-(4-fluorophenyl)cyclopropane-1,1-dicarboxamide]
IC50 (Met): ≤ 10 nM
IC50 (Mer): ≤ 10 nM

O=C(Nc1ccc(F)cc1)C1(C(=O)Nc2ccc(Oc3ccnc4cc(-c5cnn(CC(F)(F)F)c5)ccc34)cc2)CC1 [Compound 16, 1-N′-(4-Fluorophenyl)-1-N-[4-[7-[1-(2,2,2-trifluoroethyl)pyrazol-4-yl]quinolin-4-yl]oxyphenyl]cyclopropane-1,1-dicarboxamide]
IC50 (Met): 10 to 100 nM
IC50 (Mer): 10 to 100 nM

Cn1ncc(-c2ccc3c(Oc4ccc(NC(=O)C5(C(=O)Nc6ccc(F)cc6)CC5)cc4)ccnc3c2)n1 [Compound 86, 1-N′-(4-Fluorophenyl)-1-N-[4-[7-(2-methyltriazol-4-yl)quinolin-4-yl]oxyphenyl]cyclopropane-1,1-dicarboxamide]
IC50 (Met): 10 to 100 nM
IC50 (Mer): 10 to 100 nM

O=C(Nc1ccc(F)cc1)C1(C(=O)Nc2ccc(Oc3ccnc4cc(-c5ccncn5)ccc34)cc2)CC1 [Compound 114, 1-N′-(4-Fluorophenyl)-1-N-[4-(7-pyrimidin-4-ylquinolin-4-yl)oxyphenyl]cyclopropane-1,1-dicarboxamide]
IC50 (Met): 10 to 100 nM
IC50 (Mer): 10 to 100 nM

Cn1ccnc1-c1ccc2c(Oc3ccc(NC(=O)C4(C(=O)Nc5ccc(F)cc5)CC4)cc3)ccnc2c1 [Compound 75, 1-N′-(4-Fluorophenyl)-1-N-[4-[7-(1-methylimidazol-2-yl)quinolin-4-yl]oxyphenyl]cyclopropane-1,1-dicarboxamide]
IC50 (Met): 10 to 100 nM
IC50 (Mer): 10 to 100 nM
